The experiment deals with HIV-1 single-round infectious reporter virus. Kind of experiment: Single-round infectious HIV-1 luciferase reporter virus infection of HeLa CD4 cells (antiviral EC50). It is filed as cell-based. The conditions noted are these: Human immunodeficiency virus 1, HeLa, 72 h, read-out: EC50 Group from Table 1. On the procedure: • Virus production—Human embryonic Kidney cell line, 293T, was propagated in Dulbecco's Modified Eagle Medium (Invitrogen, Carlsbad, Calif.) containing 10% fetal Bovine serum (FBS, Sigma, St. Louis, Mo.). • Virus infection—Human epithelial cell line, HeLa, expressing the HIV-1 receptor CD4 was propagated in Dulbecco's Modified Eagle Medium (Invitrogen, Carlsbad, Calif.) containing 10% fetal Bovine serum (FBS, Sigma, St. Louis, Mo.) and supplemented with 0.2 mg/mL Geneticin (Invitrogen, Carlsbad, Calif.). Virus-Single-round infectious reporter virus was produced by co-transfecting human embryonic Kidney 293 cells with an HIV-1 envelope DNA expression vector and a proviral cDNA containing an envelope deletion mutation and the luciferase reporter gene inserted in place of HIV-1 nef sequences (Chen et al, Ref. 41). Transfections were performed using lipofectAMINE PLUS reagent as described by the manufacturer (Invitrogen, Carlsbad, Calif.).
• 1. HeLa CD4 cells were plated in 96 well plates at a cell density of 1×10^4 cells per well in 100 μl Dulbecco's Modified Eagle Medium containing 10% fetal Bovine serum and incubated overnight. • 2. Compound was added in a 2 μl dimethylsulfoxide solution, so that the final assay concentration would be ≦10 μM. • 3. 100 μl of single-round infectious reporter virus in Dulbecco's Modified Eagle Medium was then added to the plated cells and compound at an approximate multiplicity of infection (MOI) of 0.01, resulting in a final volume of 200 μl per well. • 4. Virally-infected cells were incubated at 37 degrees Celsius, in a CO2 incubator, and harvested 72 h after infection. • 5. Viral infection was monitored by measuring luciferase expression from viral DNA in the infected cells using a luciferase reporter gene assay kit, as described by the manufacturer (Roche Molecular Biochemicals, Indianapolis, Ind.). Infected cell supernatants were removed and 50 μl of lysis buffer was added per well. After 15 minutes, 50 μl of freshly-reconstituted luciferase assay reagent was added per well. Luciferase activity was then quantified by measuring luminescence using a Wallac microbeta scintillation counter. • 6. The percent inhibition for each compound was calculated by quantifying the level of luciferase expression in cells infected in the presence of each compound as a percentage of that observed for cells infected in the absence of compound and subtracting such a determined value from 100. • 7. An EC50 provides a method for comparing the antiviral potency of the compounds of this invention. The effective concentration for fifty percent inhibition (EC50) was calculated with the Microsoft Excel Xlfit curve fitting software. For each compound, curves were generated from percent inhibition calculated at 10 different concentrations by using a four paramenter logistic model (model 205). Table 1 is the key for the data in Table 2.
In general terms: A reporter such as luciferase makes a cellular process visible.

Molecules are shown by their SMILES. pEC50: −log10 of the molar value.

For the compound `COc1cnc(-n2cnc(C)n2)c2[nH]cc(C(=O)C(=O)N3CCC(=C(c4ccccc4)c4cnn(C)c4)CC3)c12` [Example 141, 1-[4-(1-Phenyl-1-(1-methylpyrazol-4-yl)-methylene)-piperidin-1-yl]-2-(4-methoxy-7-(3-methyl-1,2,4-triazol-1-yl)-6-azaindol-3-yl)-ethane-1,2-dione], the negative-log EC50 (pEC50) – broadly, the negative decadic logarithm of the EC50, by convention in mol/L – is greater than 6.00. The value for `N#CC(=C1CCN(C(=O)C(=O)c2c[nH]c3c(-c4ncco4)ccnc23)CC1)c1ccccc1` [Example 103, {1-[2-(7-Oxazol-2-yl-1H-pyrrolo[3,2-b]pyridin-3-yl)-2-oxo-acetyl]-piperidin-4-ylidene}-phenyl-acetonitrile] was greater than 6.00. The value for `COc1cnc(-n2ccc(C)n2)c2[nH]cc(C(=O)C(=O)N3CCC(=C(c4ccccc4)c4ccc(F)cc4)CC3)c12` [Example 97] was greater than 6.00.

For `COc1ncc(OC)c2c(C(=O)C(=O)N3CCC(=C(c4ccccc4)c4ccc(SC)cc4)CC3)c[nH]c12` [Example 63], the pEC50 is greater than 6.00.

Regarding `COc1ncc(OC)c2c(C(=O)C(=O)N3CCC(=C(C#N)c4ccsc4)CC3)c[nH]c12` [Example 126, 1-[4-(1-Cyano-1-thien-3-yl-methylene)-piperidin-1-yl]-2-(4,7-dimethoxy-6-azaindol-3-yl)-ethane-1,2-dione], the pEC50 is greater than 6.00. Consider `COc1cnc(-n2ccc(C)n2)c2[nH]cc(C(=O)C(=O)N3CCC(=C(c4ccccc4)c4nccs4)CC3)c12` [Example 95], for which the pEC50 was greater than 6.00. In the case of `COc1cnc(-c2nnc(C)[nH]2)c2[nH]cc(C(=O)C(=O)N3CCC(=C(c4ccccc4)c4nnc(C)o4)CC3)c12` [Example 139, 1-[4-(1-Phenyl-1-(5-methyl-1,3,4-oxadiazol-2-yl)-methylene)-piperidin-1-yl]-2-(4-methoxy-7-(5-methyl-1,3,4-triazol-2-yl)-6-azaindol-3-yl)-ethane-1,2-dione] it was greater than 6.00; in that of `N#CC(=C1CCN(C(=O)C(=O)c2c[nH]c3c(-n4ccnn4)ncc(F)c23)CC1)c1ccccc1` [Example 129a, {1-[2-(4-Fluoro-7-[1,2,3]triazol-1-yl-1H-pyrrolo[2,3-c]pyridin-3-yl)-2-oxo-acetyl]-piperidin-4-ylidene}-phenyl-acetonitrile], greater than 6.00; in that of `COc1cnc(-c2cnccn2)c2[nH]cc(C(=O)C(=O)N3CCC(=C(c4ccccc4)c4ccc(F)cc4)CC3)c12` [Example 93], greater than 6.00. For `COc1cnc(-n2cnc(C)n2)c2[nH]cc(C(=O)C(=O)N3CCC(=C(c4ccccc4)c4cn(C)cn4)CC3)c12` [Example 136, 1-[4-(1-Phenyl-1-(1-methylimidazol-4-yl)-methylene)-piperidin-1-yl]-2-(4-methoxy-7-(3-methyl-1,2,4-triazol-1-yl)-6-azaindol-3-yl)-ethane-1,2-dione], the pEC50 was greater than 6.00. The value for `N#CC(=C1CCN(C(=O)C(=O)c2c[nH]c3c(Cl)ccnc23)CC1)c1ccccc1` [Example 101, {1-[2-(7-Chloro-1H-pyrrolo[3,2-b]pyridin-3-yl)-2-oxo-acetyl]-piperidin-4-ylidene}-phenyl-acetonitrile] was greater than 6.00; that for `COc1ncc(OC)c2c(C(=O)C(=O)N3CCC(=C(c4ccccc4)c4ccccc4)CC3)c[nH]c12` [Example 57] was greater than 6.00. In the case of `N#CC(=C1CCN(C(=O)C(=O)c2c[nH]c3c(-c4nccs4)ccnc23)CC1)c1ccccc1` [Example 104, {1-[2-Oxo-2-(7-thiazol-2-yl-1H-pyrrolo[3,2-b]pyridin-3-yl)-acetyl]-piperidin-4-ylidene}-phenyl-acetonitrile] it was greater than 6.00. In the case of `COc1ncc(OC)c2c(C(=O)C(=O)N3CCC(=C(c4ccccc4)c4ccc(F)cc4)CC3)c[nH]c12` [Example 64] it was greater than 6.00; in that of `COc1cnc(-n2ccnn2)c2[nH]cc(C(=O)C(=O)N3CCC(=C(c4ccccc4)c4nnc(O)o4)CC3)c12` [Example 77, 1-[4-(1-Phenyl-1-(5-hydroxy-1,3,4-oxadiazol-2-yl)-methylene)-piperidin-1-yl]-2-[4-methoxy-7-(1,2,3-triazol-1-yl)-6-azaindol-3-yl]-ethane-1,2-dione], greater than 6.00.

As for `COc1cnc(-n2cnc(C)n2)c2[nH]cc(C(=O)C(=O)N3CCC(=C(c4ccccc4)c4cnn(Cc5ccccc5)c4)CC3)c12` [Example 143, 1-[4-(1-Phenyl-1-(1-benzylpyrazol-4-yl)-methylene)-piperidin-1-yl]-2-(4-methoxy-7-(3-methyl-1,2,4-triazol-1-yl)-6-azaindol-3-yl)-ethane-1,2-dione], the pEC50 is greater than 6.00. In the case of `COc1ncc(OC)c2c(C(=O)C(=O)N3CCC(=C(c4ccccc4)c4nccs4)CC3)c[nH]c12` [Example 49a, 1-[4-(1-Phenyl-1-(thiazol-2-yl)-methylene)-piperidin-1-yl]-2-(4,7-dimethoxy-6-azaindol-3-yl)-ethane-1,2-dione] it was greater than 6.00; in that of `COc1ncc(OC)c2c(C(=O)C(=O)N3CCC(=C(c4ccccc4)c4c(C)noc4C)CC3)c[nH]c12` [Example 60], greater than 6.00; in that of `COc1ncc(OC)c2c(C(=O)C(=O)N3CCC(=C(c4ccccc4)c4ncco4)CC3)c[nH]c12` [Example 61], greater than 6.00. The value for `COc1ncc(OC)c2c(C(=O)C(=O)N3CCC(=C(C)c4ccccc4)CC3)c[nH]c12` [Example 8] was greater than 6.00; that for `COc1cnc(-c2cnccn2)c2[nH]cc(C(=O)C(=O)N3CCC(=C(c4ccccc4)c4cccc(F)c4)CC3)c12` [Example 94] was greater than 6.00; that for `COCC#CC(=C1CCN(C(=O)C(=O)c2c[nH]c3c(OC)ncc(OC)c23)CC1)c1ccccc1` [Example 117, 1-[4-(1-Phenyl-1-(2-methoxymethylethyn-1-yl)-methylene)-piperidin-1-yl]-2-(4,7-dimethoxy-6-azaindol-3-yl)-ethane-1,2-dione] was greater than 6.00. The value for `COc1cnc(-n2cncn2)c2[nH]cc(C(=O)C(=O)N3CCC(=C(Br)c4ccccc4)CC3)c12` [Example 88] was greater than 6.00; that for `CCc1nnc(C(=C2CCN(C(=O)C(=O)c3c[nH]c4c(-n5ccnn5)ncc(OC)c34)CC2)c2ccccc2)o1` [Example 74, 1-[4-(1-Phenyl-1-(5-ethyl-1,3,4-oxadiazol-2-yl)-methylene)-piperidin-1-yl]-2-[4-methoxy-7-(1,2,3-triazol-1-yl)-6-azaindol-3-yl]-ethane-1,2-dione] was greater than 6.00; that for `COc1ncc(OC)c2c(C(=O)C(=O)N3CCC(=Cc4ccccc4)CC3)c[nH]c12` [Example 13] was less than 5.30. Turning to `COc1ncc(OC)c2c(C(=O)C(=O)N3CCC(=C(c4ccccc4)c4nnc(C)o4)CC3)c[nH]c12` [Example 52, 1-[4-(1-Phenyl-1-(5-methyl-1,3,4-oxadiazol-2-yl)-methylene)-piperidin-1-yl]-2-(4,7-dimethoxy-6-azaindol-3-yl)-ethane-1,2-dione], the negative logarithm of the EC50 (pEC50) is greater than 6.00. For `COc1ncc(OC)c2c(C(=O)C(=O)N3CCC(=C(c4ccccc4)S(C)(=O)=O)CC3)c[nH]c12` [Example 12], the pEC50 was 5.30 to 6.00. The value for `COc1cccc(C(=C2CCN(C(=O)C(=O)c3c[nH]c4c(OC)ncc(OC)c34)CC2)c2ccccc2)c1` [Example 58] was greater than 6.00; that for `COc1cnc(-n2ccc(C)n2)c2[nH]cc(C(=O)C(=O)N3CCC(=C(c4ccccc4)c4cccc(F)c4)CC3)c12` [Example 98] was greater than 6.00. In the case of `CC1CN(C(=O)C(=O)c2c[nH]c3ccccc23)CC/C1=C\c1ccccc1` (centres unmarked) [Example 14] it was 5.30 to 6.00; in that of `COc1cnc(-n2ccnn2)c2[nH]cc(C(=O)C(=O)N3CCC(=C(c4ccccc4)c4cnn(Cc5ccccc5)c4)CC3)c12` [Example 144, 1-[4-(1-Phenyl-1-(1-benzylpyrazol-4-yl)-methylene)-piperidin-1-yl]-2-(4-methoxy-7-(1,2,3-triazol-1-yl)-6-azaindol-3-yl)-ethane-1,2-dione], greater than 6.00. The value for `COc1cnc(-n2cc(C)nn2)c2[nH]cc(C(=O)C(=O)N3CCC(=C(c4ccccc4)c4nnc(C)o4)CC3)c12` [Example 138, 1-[4-(1-Phenyl-1-(5-methyl-1,3,4-oxadiazol-2-yl)-methylene)-piperidin-1-yl]-2-(4-methoxy-7-(4-methyl-1,2,3-triazol-1-yl)-6-azaindol-3-yl)-ethane-1,2-dione] was greater than 6.00.

The values above are taken from patent US20080188481A1 (priority 2002, published 2008).
